Assay results: ChEMBL document CHEMBL5335823, “Synthesis, biological evaluation, and stability studies of raloxifene mono- and bis-sulfamates as dual-targeting agents” (Bioorg Med Chem, 2024); call rule not given here
One block for each compound: values may come before it.

Assays:
OVCAR-4 = experiment: Antiproliferative activity against human OVCAR-4 cells assessed as inhibition of cell growth measured after 72 hrs by CellTiter-Glo assay; assay type: functional
Steryl-sulfatase [1] = biological target: T1, Steryl-sulfatase (Homo sapiens, UniProt P08842); experiment: Inhibition of STS in human JEG-3 cell lysates assessed as inhibition of estrone E1 formation using [3H]estrone sulfate as substrate incubated for 1 hr in presence of E1S by scintillation spectrometry; assay type: subcellular
T1 sequence (P08842 whole entry): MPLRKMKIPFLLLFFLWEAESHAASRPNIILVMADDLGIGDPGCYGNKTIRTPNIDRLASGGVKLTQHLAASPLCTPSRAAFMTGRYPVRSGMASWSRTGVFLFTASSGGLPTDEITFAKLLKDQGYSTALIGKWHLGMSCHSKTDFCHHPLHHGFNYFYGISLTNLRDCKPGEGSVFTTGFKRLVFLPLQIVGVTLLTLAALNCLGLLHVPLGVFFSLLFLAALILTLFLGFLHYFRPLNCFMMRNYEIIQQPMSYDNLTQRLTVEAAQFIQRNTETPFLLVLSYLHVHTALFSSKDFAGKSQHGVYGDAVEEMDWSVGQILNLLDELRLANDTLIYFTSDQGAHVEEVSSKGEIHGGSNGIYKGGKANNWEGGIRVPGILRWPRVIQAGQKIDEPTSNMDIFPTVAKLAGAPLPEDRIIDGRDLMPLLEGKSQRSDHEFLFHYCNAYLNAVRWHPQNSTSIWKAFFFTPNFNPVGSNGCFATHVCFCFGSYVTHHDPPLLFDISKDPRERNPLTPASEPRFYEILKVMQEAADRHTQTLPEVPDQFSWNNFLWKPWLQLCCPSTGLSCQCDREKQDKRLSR

T47D [2] = experiment: Antiproliferative activity against human T47D cells assessed as inhibition of cell growth incubated for 5 days by crystal violet staining based analysis; assay type: functional; details: 120 h, time 5 day
HCT-116 = experiment: Antiproliferative activity against human HCT-116 cells assessed as inhibition of cell growth measured after 72 hrs by CellTiter-Glo assay; assay type: functional
UACC-62 = experiment: Antiproliferative activity against human UACC-62 cells assessed as inhibition of cell growth measured after 72 hrs by CellTiter-Glo assay; assay type: functional
[3] = Stability of the compound in wet DMSO-d6 assessed as parent compound remaining at 7.9 umol measured at room temperature after 30 days by 1HNMR spectroscopy; assay type: physicochemical; details: at 7.9 µmol, time 30 day, read-out: Stability
MDA-MB-231 = experiment: Antiproliferative activity against human MDA-MB-231 cells assessed as inhibition of cell growth measured after 72 hrs by CellTiter-Glo assay; assay type: functional
Steryl-sulfatase [4] = biological target: T1, Steryl-sulfatase; experiment: Inhibition of STS in human JEG-3 cells assessed as inhibition of estrone E1 formation using [3H]estrone sulfate as substrate incubated for 20 hrs in presence of E1S by scintillation spectrometry; assay type: cell-based
CCRF-CEM = experiment: Antiproliferative activity against human CCRF-CEM cells assessed as inhibition of cell growth measured after 72 hrs by CellTiter-Glo assay; assay type: functional
HOP-62 = experiment: Antiproliferative activity against human HOP-62 cells assessed as inhibition of cell growth measured after 72 hrs by CellTiter-Glo assay; assay type: functional
[5] = Stability of the compound in wet DMSO-d6 assessed as parent compound remaining at 7.9 umol measured at room temperature after 6 days by 1HNMR spectroscopy; assay type: physicochemical; details: at 7.9 µmol, time 6 day, read-out: Stability
DU-145 = experiment: Antiproliferative activity against human DU-145 cells assessed as inhibition of cell growth measured after 72 hrs by CellTiter-Glo assay; assay type: functional
SN12C = experiment: Antiproliferative activity against human SN12C cells assessed as inhibition of cell growth measured after 72 hrs by CellTiter-Glo assay; assay type: functional
SF-539 = experiment: Antiproliferative activity against human SF-539 cells assessed as inhibition of cell growth measured after 72 hrs by CellTiter-Glo assay; assay type: functional
[6] = Stability of the compound in wet DMSO-d6 assessed as parent compound remaining at 6.2 umol measured at room temperature after 45 days by 1HNMR spectroscopy; assay type: physicochemical; details: at 6.2 µmol, time 45 day, read-out: Stability
[7] = Stability of the compound in wet DMSO-d6 assessed as parent compound remaining at 6.2 umol measured at room temperature after 6 days by 1HNMR spectroscopy; assay type: physicochemical; details: at 6.2 µmol, time 6 day, read-out: Stability
[8] = Stability of the compound in wet DMSO-d6 assessed as parent compound remaining at 8 umol measured at room temperature after 45 days by 1HNMR spectroscopy; assay type: physicochemical; details: at 8 µmol, time 45 day, read-out: Stability
T47D [9] = experiment: Antiproliferative activity against human T47D cells assessed as inhibition of cell growth at 10 uM incubated for 5 days by crystal violet staining based analysis; assay type: functional; details: 120 h, time 5 day
[10] = biological target: T2, Estrogen receptor (Homo sapiens) (UniProt P03372); experiment: Antagonist activity at ER-alpha (unknown origin) at 10 microM by ER-alpha coactivator assay
T2 sequence (whole entry): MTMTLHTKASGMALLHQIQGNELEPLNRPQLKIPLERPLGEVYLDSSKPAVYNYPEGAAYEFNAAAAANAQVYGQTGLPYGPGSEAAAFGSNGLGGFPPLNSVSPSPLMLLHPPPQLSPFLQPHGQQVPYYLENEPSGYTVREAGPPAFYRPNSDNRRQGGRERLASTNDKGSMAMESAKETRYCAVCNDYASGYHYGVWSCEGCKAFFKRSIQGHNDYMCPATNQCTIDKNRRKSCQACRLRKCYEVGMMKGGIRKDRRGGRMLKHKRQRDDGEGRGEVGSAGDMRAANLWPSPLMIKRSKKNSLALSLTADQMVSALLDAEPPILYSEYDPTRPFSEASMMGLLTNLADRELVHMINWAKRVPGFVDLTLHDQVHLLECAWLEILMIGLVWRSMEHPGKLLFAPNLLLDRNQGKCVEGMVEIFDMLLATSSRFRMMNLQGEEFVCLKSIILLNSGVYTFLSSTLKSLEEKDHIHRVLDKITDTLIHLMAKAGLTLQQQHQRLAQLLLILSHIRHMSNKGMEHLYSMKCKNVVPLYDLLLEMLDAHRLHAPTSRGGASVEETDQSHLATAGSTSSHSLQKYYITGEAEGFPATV

SMILES: Cl.O=C(c1ccc(OCCN2CCCCC2)cc1)c1c(-c2ccc(O)cc2)sc2cc(O)ccc12 [RALOXIFENE HYDROCHLORIDE]
- IC50 (Steryl-sulfatase [1]; jeg-3): Not Active

SMILES: O=C(c1ccc(OCCN2CCCCC2)cc1)c1c(-c2ccc(O)cc2)sc2cc(O)ccc12 [RALOXIFENE]
- IC50 (Steryl-sulfatase [1]; jeg-3): Not Active
- GI50 (T47D [2]): 6.89 µM
- IC50 (Steryl-sulfatase [4]; jeg-3): Not Active
- inhibition at 10 µM (T47D [9]): 78%

Second part, led by results:

- GI50 (OVCAR-4): 10.6 µM
- IC50 (Steryl-sulfatase [1]; read-out: IC50): 0.0966 µM
- GI50 (T47D [2]): 7.12 µM
- GI50 (HCT-116): 14.6 µM
- remaining at 720 h, 7.9 umol [3]: 0%
- GI50 (MDA-MB-231): 1.34 µM
- IC50 (Steryl-sulfatase [4]; read-out: IC50): 0.0122 µM
- GI50 (CCRF-CEM): 9.02 µM
- remaining at 144 h, 7.9 umol [5]: 27%
- GI50 (DU-145): 16 µM
SMILES: NS(=O)(=O)Oc1ccc(-c2sc3cc(OS(N)(=O)=O)ccc3c2C(=O)c2ccc(OCCN3CCCCC3)cc2)cc1
- GI50 (UACC-62): 1.47 µM
- GI50 (HOP-62): 14.8 µM
- GI50 (SN12C): 1.61 µM
- GI50 (SF-539): 13.1 µM

- IC50 (Steryl-sulfatase [1]; read-out: IC50): 2.08 µM
- IC50 (Steryl-sulfatase [4]; read-out: IC50): 0.332 µM
- remaining at 1080 h, 6.2 umol [6]: 18%
- remaining at 144 h, 6.2 umol [7]: 70%
SMILES: NS(=O)(=O)Oc1ccc2c(C(=O)c3ccc(OCCN4CCCCC4)cc3)c(-c3ccc(O)cc3)sc2c1

- IC50 (Steryl-sulfatase [1]; read-out: IC50): 3.4 µM
- remaining at 1080 h, 8 umol [8]: 12%
- IC50 (Steryl-sulfatase [4]; read-out: IC50): 0.607 µM
- inhibition [10]: 27%
SMILES: NS(=O)(=O)Oc1ccc(-c2sc3cc(O)ccc3c2C(=O)c2ccc(OCCN3CCCCC3)cc2)cc1
- inhibition at 10 µM (T47D [9]): 12%
